For series [1], the system named is colonic tumor of mouse, colon 26. The series can be described thus: Antitumor Activity Tests (2) and (3): complete regression of colon 26 tumor in CDF1 mice (Example 2). It is filed as in vivo. Particulars: palpation on 60th day. Here is the method: (§1) Stilbene derivatives of formulas (3), (4) and (5), and Cisplatin and Carboplatin were bolusly injected into the tail vein on the 7th, 11th and 15th days as described in Tables 3 through 6 below.
Antitumor effects: Complete regression of the colonic tumor was determined by palpation. Subjects in which the tumor had not been ascertained by palpation on the 60th day were deemed to have their tumors completely cured.
(§2) The terms: [+CBDCA] and [+CDDP] indicate that 50 mg/kg/day of carboplatin or 5 mg/kg/day of cisplatin were administered, respectively. The terms: [−CBDCA] and [−CDDP] indicate that no carboplatin or cisplatin were administered. The dosages of cisplatin and carboplatin denote the maximum dosages without death due to toxicity in the administration schedule in the present embodiment.

The nature of series [2]: Safety Tests (2) and (3): rate of body weight change in colon 26 tumor-bearing CDF1 mice (Example 2). It is filed as in vivo. Conditions: 21st day vs 7th day. On the procedure:
as §1, §2
Body weight change on the 21st day was calculated using the equation described in Example 1.

For series [3], the system named is murine colonic tumor, colon 26. Description: Antitumor Activity Test (1): complete regression of colon 26 tumor in CDF1 mice (Example 1). It is filed as in vivo. Particulars: for Number of instances of complete regression of tumors: palpation on 60th day; for Complete regression (curing) of tumors in mice, in words: in combination with Cisplatin. Here is the method: Antitumor effects: Complete regression of the colonic tumor was determined by palpation. Subjects in which the tumor has not been ascertained by palpation on the 60th day were deemed to have their tumors cured completely.

The conditions of series [4]: for Rate of Body Weight Change: 21st day vs 7th day; for Body weight decrease, in words: in combination with Cisplatin. On the procedure: Methodology. 10 mg of a murine colonic tumor, colon 26, was inoculated under the skin of the back of CDF1 mice (day 0). After one week, the tumor was measured to calculate the volume of the tumor and the mice were classified into several groups (each group: n=5) and administration of the stilbene derivative and Cisplatin was started. On days 7, 11 and 15, the tumor-inoculated mice were bolusly injected under the skin of their backs and into their tail veins with 1 mg of the stilbene derivative of formula (3) in 1 ml of physiological saline solution and 0.5 mg of Cisplatin (“randa Inj”) in a volume of 1 ml. Control and comparative groups of mice were similarly injected with the other drug combinations described in Table 1. The comparative drug Vindesine is an antitumor drug used in combination with Cisplatin by Garalla et al. VP-16 is also a chemotherapeutic drug which is often used clinically in combination with Cisplatin.
As indicated in Table 1 the term [−CDDP] means that Cisplatin was not administered at all. The term [+CDDP] means that Cisplatin was administered in an amount of 5 mg/kg/day. The term [n.d.] means that no testing was performed.
Safety. The rate of body weight change was used as a measure of safety as significant loss of body weight is undesirable in cancer patients. Body weight change was calculated using the following equation: Rate of body weight change (%)=[{(body weight−weight of the tumor) at the 21st day}−{(body weight−weight of the tumor) at the 7th day}]/{body weight−weight of the tumor) at the 7th day}×100.
Using the above equation, the rate of body weight change at the 21st day was calculated.

Series [5] can be described thus: Solubility in water (statement).
The mark [6] stands for this setting: Control, +CBDCA: carboplatin alone 50 mg/kg/day.
Where [7] appears, read: Control, +CDDP: cisplatin alone 5 mg/kg/day.
The mark [8] stands for this setting: +CDDP (cisplatin 5 mg/kg/day), sample 5 mg/kg/day.

“Also recorded” adds a separate entry of the source. Read-outs that look alike come from different tables or passages of the source.

On to `[NH2][Pt]1([NH2])[O]C(=O)C2(CCC2)C(=O)[O]1` [CBDCA, diammine(1,1-cyclobutane dicarboxylate) platinum (II), reference compound], for which the “Number of instances of complete regression of tumors” value (from here on “Number”) in series [1] (setting [6]) is on record as 0/6. Moreover, the “Rate of Body Weight Change” value in series [2] (setting [6]) is given as −9.6%.

For the compound `N.N.[Cl][Pt][Cl]` [CDDP, cis-diamminedichloroplatinum (II), reference compound], the “Number” value in series [3] (Control, +CDDP: Cisplatin alone 5 mg/kg/day on days 7, 11, 15) is recorded as 0/5; in series [1] (setting [7]), 0/6. The “Rate of Body Weight Change” value in series [4] (setting [7]) is listed as −11.1%; in series [2] (setting [7]) it was −11.4%.

Consider `COc1ccc(/C=C\c2cc(OC)c(OC)c(OC)c2)cc1NC(=O)C(N)CO` [Compound (3), (Z)-1-(3-amino-4-methoxyphenyl)-2-(3,4,5-trimethoxyphenyl)-ethene-L-serine amide], for which the “Number” value is listed as 1/5 in series [3] (+CDDP (Cisplatin 5 mg/kg/day), sample 5 mg/kg/day on days 7, 11, 15); 4/5 in series [3] (+CDDP (Cisplatin 5 mg/kg/day), sample 10 mg/kg/day on days 7, 11, 15); 0/5 in series [3] (−CDDP, sample 10 mg/kg/day on days 7, 11, 15); 1/6 in series [1] (+CBDCA (carboplatin 50 mg/kg/day), sample 20 mg/kg/day, tail vein, 7th, 11th, 15th days); 0/6 in series [1] (−CBDCA, sample 20 mg/kg/day, tail vein, 7th, 11th, 15th days). The “Rate of Body Weight Change” value in series [4] (+CDDP (Cisplatin 5 mg/kg/day), sample 10 mg/kg/day) was −1.9%; in series [4] (setting [8]), −4.2%; in series [4] (−CDDP, sample 10 mg/kg/day, tumor weight subtracted), −7.7%; in series [2] (+CBDCA (carboplatin 50 mg/kg/day), sample 20 mg/kg/day), 1.8%; in series [2] (−CBDCA, sample 20 mg/kg/day) it was −7.4%. Besides, the “Body weight decrease, in words” value in series [4] was “did not cause significant decreases in body weight”. Also, the “Solubility in water, in words” value in series [5] was “soluble in water”.

In the case of `COc1ccc(/C=C(/C#N)c2cc(OC)c(OC)c(OC)c2)cc1N` [Compound (4)], the “Number” value in series [1] (+CDDP (cisplatin 5 mg/kg/day), sample 5 mg/kg/day, tail vein, 7th, 11th, 15th days) is recorded as 4/6; in series [1] (−CDDP, sample 5 mg/kg/day, tail vein, 7th, 11th, 15th days), 0/6. The “Rate of Body Weight Change” value is given as −13.9% in series [2] (setting [8]) and −7.0% in series [2] (−CDDP, sample 5 mg/kg/day).

As for `COc1ccc(/C=C\c2cc(OC)c(OC)c(OC)c2)cc1N` [Compound (5)], the “Number” value in series [1] (+CDDP (cisplatin 5 mg/kg/day), sample 20 mg/kg/day, tail vein, 7th, 11th, 15th days) is 6/6; in series [1] (−CDDP, sample 20 mg/kg/day, tail vein, 7th, 11th, 15th days), 0/6. The “Rate of Body Weight Change” value in series [2] (+CDDP (cisplatin 5 mg/kg/day), sample 20 mg/kg/day) is recorded as −0.3%; in series [2] (−CDDP, sample 20 mg/kg/day), −2.1%.

Consider `COc1cc([C@@H]2c3cc4c(cc3[C@@H](O[C@@H]3O[C@@H]5CO[C@@H](C)O[C@H]5[C@H](O)[C@H]3O)[C@H]3COC(=O)[C@H]23)OCO4)cc(OC)c1O` [VP-16, reference compound], for which the “Number” value is 0/5 in series [3] (+CDDP (Cisplatin 5 mg/kg/day), sample 30 mg/kg/day on days 7, 11, 15) and 0/5 in series [3] (−CDDP, sample 30 mg/kg/day on days 7, 11, 15). Further, the “Complete regression (curing) of tumors in mice, in words” value in series [3] is recorded as “complete tumor regression was not observed”. The “Rate of Body Weight Change” value in series [4] (+CDDP (Cisplatin 5 mg/kg/day), sample 30 mg/kg/day) is given as −9.9%; in series [4] (−CDDP, sample 30 mg/kg/day) it was −1.0%. For the same compound, in series [4], the “Body weight decrease, in words” value was “high rates of body weight loss”.

In the case of `CC[C@]1(O)C[C@@H]2CN(CCc3c([nH]c4ccccc34)[C@@](C(=O)OC)(c3cc4c(cc3OC)N(C)[C@H]3[C@@](O)(C(N)=O)[C@H](O)[C@]5(CC)C=CCN6CC[C@]43[C@@H]65)C2)C1` [Vindesine], the “Number” value in series [3] (+CDDP (Cisplatin 5 mg/kg/day), sample 2 mg/kg/day on days 7, 11, 15) is 0/5. For the same compound, the “Complete regression (curing) of tumors in mice, in words” value in series [3] is recorded as “complete curing of tumors in mice has not been observed; also recorded: complete tumor regression was not observed”.
